Patent US20110112151A1, “COMPOUND CAPABLE OF INHIBITING 11-BETA HYDROXYSTERIOD DEHYDROGENASE” (priority 2008, published 2011)

What follows are compounds tested against T1, 11β-HSD1 (Homo sapiens, UniProt P28845) (assay: 11β-HSD1 HEK assay (cell based assay, SPA)). Conditions: HEK293, read-out: Activity (inhibition of 11β-HSD1).
T1 construct: expressed in transfected cells; host or cells: HEK 293 (stably transfected, HEK 293/HSD11B1)
Description: 11β-HSD1 HEK Assay Protocol (Cell Based Assay)
11β-HSD1 activity is measured in whole HEK 293 cells stably transfected with the HSD11B1 gene. Cells are incubated in 96-well microplates in the presence of tritiated substrate. Enzyme activity is determined by measuring the amount of tritated product by scintillation proximity assay (SPA). Assay plates contain internal high and low controls to allow calculation of percentage inhibition.
1. […] 2. When the cells are 80% confluent the medium is removed from each well. 100 μl fresh, serum-free, medium containing ^3H-cortisone and test compound in 1% DMSO is added to each well*. Control wells are also dispensed. […] 3. The plate is incubated at 37° C. for the required time period. 4. 50 μl of media is removed from each well and transferred to a microplate containing 100 μl of a pre-incubated mixture of anti-cortisol antibody and SPA bead. The mixture is incubated with gentle shaking until equilibrium is reached, before transferring to a scintillation counter to establish the enzyme activity in each sample.
10 μl of compound is dispensed into each well of a 96-well microplate in 10% DMSO at 100 μM concentration. 90 μl media containing ^3H-cortisone is added to each well. The compound/media/substrate mixture is then transferred to the assay plate containing the cells. […]

T1 sequence (P28845 whole entry): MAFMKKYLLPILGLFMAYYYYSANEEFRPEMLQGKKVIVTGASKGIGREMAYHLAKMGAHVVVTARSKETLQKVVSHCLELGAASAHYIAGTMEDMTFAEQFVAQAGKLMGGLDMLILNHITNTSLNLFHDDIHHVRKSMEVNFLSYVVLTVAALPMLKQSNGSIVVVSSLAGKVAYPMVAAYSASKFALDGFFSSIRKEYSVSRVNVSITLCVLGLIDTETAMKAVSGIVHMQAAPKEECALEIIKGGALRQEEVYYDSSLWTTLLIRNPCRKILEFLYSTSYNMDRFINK

| Compound | inhibition at 1 µM |
| --- | --- |
| Cc1nnc(S(=O)(=O)CC(=O)C23CC4CC(CC(C4)C2)C3)s1 [Example 79, 1-Adamantan-1-yl-2-(5-methyl-[1,3,4]thiadiazole-2-sulfonyl)-ethanone] | > 60% |

Same assay, conditions: HEK293; at 1 μM; whole HEK 293 cells stably transfected with the HSD11B1 gene, 3H-cortisone substrate; read-out: Activity (inhibition of 11β-HSD1)

| inhibition at 1 µM | Compound |
| --- | --- |
| > 60% | Cn1ccnc1SCC(=O)C1(c2ccc(Cl)cc2)CC1 [Example 1, 1-[1-(4-Chloro-phenyl)-cyclopropyl]-2-(1-methyl-1H-imidazol-2-ylsulfanyl)-ethanone] |
| < 20% | Cn1ccnc1[S+]([O-])CC(=O)C1(c2ccc(Cl)cc2)CC1 (stereo not drawn) [Example 2, 1-[1-(4-Chloro-phenyl)-cyclopropyl]-2-(1-methyl-1H-imidazole-2-sulfinyl)-ethanone] |
| < 20% | Cn1ccnc1S(=O)(=O)CC(=O)C1(c2ccc(Cl)cc2)CC1 [Example 3, 1-[1-(4-Chloro-phenyl)-cyclopropyl]-2-(1-methyl-1H-imidazole-2-sulfonyl)-ethanone] |
| < 20% | O=C(CSc1ccccn1)C1(c2ccc(Cl)cc2)CC1 [Example 4, 1-[1-(4-Chloro-phenyl)-cyclopropyl]-2-(pyridin-2-ylsulfanyl)-ethanone] |
| 20 to 60% | O=C(C[S+]([O-])c1ccccn1)C1(c2ccc(Cl)cc2)CC1 (stereo not drawn) [Example 5, 1-[1-(4-Chloro-phenyl)-cyclopropyl]-2-(pyridine-2-sulfinyl)-ethanone] |
| < 20% | O=C(CS(=O)(=O)c1ccccn1)C1(c2ccc(Cl)cc2)CC1 [Example 6, 1-[1-(4-Chloro-phenyl)-cyclopropyl]-2-(pyridine-2-sulfonyl)-ethanone] |
| > 60% | O=C(CS(=O)(=O)Cc1cccnc1)C12CC3CC(CC(C3)C1)C2 [Example 9, 1-Adamantan-1-yl-2-(pyridin-3-ylmethanesulfonyl)-ethanone] |
| > 60% | O=C(CSc1ccccn1)C12CC3CC(CC(C3)C1)C2 [Example 12, 1-Adamantan-1-yl-2-(pyridin-2-ylsulfanyl)-ethanone] |
| > 60% | O=C(CS(=O)(=O)Cc1ccccn1)C12CC3CC(CC(C3)C1)C2 [Example 16, 1-Adamantan-1-yl-2-(pyridin-2-ylmethanesulfonyl)-ethanone] |
| 20 to 60% | O=C(CSc1ccccn1)C1(c2ccc(Cl)cc2)CCC1 [Example 20, 1-[1-(4-Chloro-phenyl)-cyclobutyl]-2-(pyridin-2-ylsulfanyl)-ethanone] |
| 20 to 60% | Cn1ccnc1SCC(=O)C1(c2ccc(Cl)cc2)CCC1 [Example 21, 1-[1-(4-Chloro-phenyl)-cyclobutyl]-2-(1-methyl-1H-imidazol-2-ylsulfanyl)-ethanone] |
| < 20% | O=C(CS(=O)(=O)c1ccccn1)C1(c2ccc(Cl)cc2)CCC1 [Example 22] |
| < 20% | Cn1ccnc1S(=O)(=O)CC(=O)C1(c2ccc(Cl)cc2)CCC1 [Example 24, 1-[1-(4-Chloro-phenyl)-cyclobutyl]-2-(1-methyl-1H-imidazole-2-sulfonyl)-ethanone] |
| < 20% | Cn1ccnc1[S+]([O-])CC(=O)C1(c2ccc(Cl)cc2)CCC1 (stereo not drawn) [Example 25, 1-[1-(4-Chloro-phenyl)-cyclobutyl]-2-(1-methyl-1H-imidazole-2-sulfinyl)-ethanone] |
| > 60% | Cc1cccc(S(=O)(=O)CC(=O)C23CC4CC(CC(C4)C2)C3)n1 [Example 30, 1-(adamantan-1-yl)-2-[(6-methylpyridine-2-)sulfonyl]ethan-1-one] |
| > 60% | O=C(C[S+]([O-])c1ccncc1)C12CC3CC(CC(C3)C1)C2 (stereo not drawn) [Example 33, 1-(adamantan-1-yl)-2-(pyridine-4-sulfinyl)ethan-1-one] |
| > 60% | NC(=O)c1ccc(SCC(=O)C23CC4CC(CC(C4)C2)C3)nc1 [Example 37, 6-(2-Adamantan-1-yl-2-oxo-ethylsulfanyl)-nicotinamide] |
| 20 to 60% | Cn1ccnc1SCC(=O)C1(c2ccc(Cl)cc2)CCCCC1 [Example 40, 1-[1-(4-Chloro-phenyl)-cyclohexyl]-2-(1-methyl-1H-imidazol-2-ylsulfanyl)-ethanone] |
| 20 to 60% | Cn1ccnc1SCC(=O)C1(c2ccc(Cl)cc2)CCCC1 [Example 41, 1-[1-(4-Chloro-phenyl)-cyclopentyl]-2-(1-methyl-1H-imidazol-2-ylsulfanyl)-ethanone] |
| < 20% | O=C(COCc1ccccn1)C1(c2ccc(Cl)cc2)CCC1 [Example 42, 1-[1-(4-Chloro-phenyl)-cyclobutyl]-2-(pyridin-2-ylmethoxy)-ethanone] |

| inhibition at 1 µM | Compound |
| --- | --- |
| 20 to 60% | Cn1ccnc1S(=O)(=O)CC(=O)C1(c2ccc(Cl)cc2)CCCC1 [Example 43, 1-[1-(4-Chloro-phenyl)-cyclopentyl]-2-(1-methyl-1H-imidazole-2-sulfonyl)-ethanone] |
| 20 to 60% | Cn1ccnc1[S+]([O-])CC(=O)C1(c2ccc(Cl)cc2)CCCC1 (stereo not drawn) [Example 44, 1-[1-(4-Chloro-phenyl)-cyclopentyl]-2-(1-methyl-1H-imidazole-2-sulfinyl)-ethanone] |
| 20 to 60% | O=C(CSc1ccccn1)C1(c2ccc(Cl)cc2)CCCCC1 [Example 47, 1-[1-(4-Chloro-phenyl)-cyclohexyl]-2-(pyridin-2-ylsulfanyl)-ethanone] |
| 20 to 60% | O=C(CS(=O)(=O)c1ccccn1)C1(c2ccc(Cl)cc2)CCCCC1 [Example 48, 1-[1-(4-Chloro-phenyl)-cyclohexyl]-2-(pyridine-2-sulfonyl)-ethanone] |
| < 20% | O=C(C[S+]([O-])c1ccccn1)C1(c2ccc(Cl)cc2)CCCCC1 (stereo not drawn) [Example 49, 1-[1-(4-Chloro-phenyl)-cyclohexyl]-2-(pyridine-2-sulfinyl)-ethanone] |
| > 60% | Cn1ccnc1SCC(=O)C(C)(C)c1ccc(Cl)cc1 [Example 52, 3-(4-Chloro-phenyl)-3-methyl-1-(1-methyl-1H-imidazol-2-ylsulfanyl)-butan-2-one] |
| 20 to 60% | O=C(COc1ccc(C(F)(F)F)cn1)C12CC3CC(CC(C3)C1)C2 [Example 55, 1-Adamantan-1-yl-2-(5-trifluoromethyl-pyridin-2-yloxy)-ethanone] |
| 20 to 60% | O=C(COCc1ccc(C(F)(F)F)nc1)C12CC3CC(CC(C3)C1)C2 [Example 56, 1-Adamantan-1-yl-2-(6-trifluoromethyl-pyridin-3-ylmethoxy)-ethanone] |
| 20 to 60% | O=C(COc1cncc(Cl)c1)C12CC3CC(CC(C3)C1)C2 [Example 57, 1-Adamantan-1-yl-2-(5-chloro-pyridin-3-yloxy)-ethanone] |
| 20 to 60% | O=C(COc1cccc(Cl)n1)C12CC3CC(CC(C3)C1)C2 [Example 58, 1-Adamantan-1-yl-2-(6-chloro-pyridin-2-yloxy)-ethanone] |
| 20 to 60% | O=C(CSCc1ccc(C(F)(F)F)nc1)C12CC3CC(CC(C3)C1)C2 [Example 59, 1-Adamantan-1-yl-2-(6-trifluoromethyl-pyridin-3-ylmethylsulfanyl)-ethanone] |
| > 60% | O=C(C[S+]([O-])Cc1ccc(Cl)nc1)C12CC3CC(CC(C3)C1)C2 (stereo not drawn) [Example 65, 1-Adamantan-1-yl-2-(6-chloro-pyridin-3-ylmethanesulfinyl)-ethanone] |
| 20 to 60% | O=C(C[S+]([O-])c1ccc(C(F)(F)F)cn1)C12CC3CC(CC(C3)C1)C2 (stereo not drawn) [Example 68, 1-Adamantan-1-yl-2-(5-trifluoromethyl-pyridine-2-sulfinyl)-ethanone] |
| 20 to 60% | O=C(CS(=O)(=O)Cc1ccc(C(F)(F)F)nc1)C12CC3CC(CC(C3)C1)C2 [Example 69, 1-Adamantan-1-yl-2-(6-trifluoromethyl-pyridin-3-ylmethanesulfonyl)-ethanone] |
| < 20% | Cc1cc(C)c(C(=O)COc2ccc(C)nc2)c(C)c1 [Example 70, 2-(6-Methyl-pyridin-3-yloxy)-1-(2,4,6-trimethyl-phenyl)-ethanone] |
| > 60% | Cc1ccc(OCC(=O)C(C)(C)c2ccc(Cl)cc2)cn1 [Example 71, 3-(4-Chloro-phenyl)-3-methyl-1-(6-methyl-pyridin-3-yloxy)-butan-2-one] |
| < 20% | Cc1cc(C)c(C(=O)COc2cccnc2)c(C)c1 [Example 72, 2-(Pyridin-3-yloxy)-1-(2,4,6-trimethyl-phenyl)-ethanone] |
| < 20% | Cc1cc(C)c(C(=O)CSc2ccccn2)c(C)c1 [Example 73, 2-(Pyridin-2-ylsulfanyl)-1-(2,4,6-trimethyl-phenyl)-ethanone] |
| < 20% | Cc1cc(C)c(C(=O)CSc2nccn2C)c(C)c1 [Example 74, 2-(1-Methyl-1H-imidazol-2-ylsulfanyl)-1-(2,4,6-trimethyl-phenyl)-ethanone] |
| < 20% | Cc1cc(C)c(C(=O)CS(=O)(=O)c2ccccn2)c(C)c1 [Example 75, 2-(Pyridine-2-sulfonyl)-1-(2,4,6-trimethyl-phenyl)-ethanone] |

Same assay, conditions: at 1 μM; whole HEK 293 cells stably transfected with the HSD11B1 gene, 3H-cortisone substrate

| Compound | Activity (inhibition of 11β-HSD1) |
| --- | --- |
| Cn1ccnc1S(=O)(=O)CC(=O)C1(c2ccc(Cl)cc2)CCCCC1 [Example 45, 1-[1-(4-Chloro-phenyl)-cyclohexyl]-2-(1-methyl-H-imidazole-2-sulfonyl)-ethanone] | b (from 20 to 60% inhibition of 11β-HSD1 at 1 μM) |
